Reference: US9873670B2, “Arylquinoline and analog compounds and use thereof to treat cancer” (UNIVERSITY OF KENTUCKY RESEARCH FOUNDATION, priority 2013, dated 2018)

Columns and labels:
[1] = tested on: cancer cells co-cultured with Par-4+/+ MEFs; test: Apoptosis in co-cultures of Par-4+/+ MEFs and cancer cells; format: cell-based
Method: (§1) Top: Cancer cells were co-cultured with MEFs and treated with Arylquin 1 (500 nM) or vehicle and tested for apoptosis. Bottom: Serum from mice injected with Arylquin 1 (Aq) or corn oil vehicle (V), was examined by Western blot analysis (not shown). Aliquots of serum from these mice were either directly added to the growth medium of cells in culture, or incubated with the indicated antibody, and then added to the growth medium of PC-3 MM2 cells to test for apoptosis.
(§2) See Hebbar, N., Wang, C. & Rangnekar, V. M. J Cell Phys 227, 3715-3721 (2012) and Shrestha-Bhattarai, T., Hebbar, N. & Rangnekar, V. M. Cancer Cell 24, 3-5 (2013). A total of three independent experiments were performed; and approximately 500 cells were scored in each experiment for apoptosis under a fluorescent microscope. Cell surface GRP78 expression on the cancer cell surface was quantified by FACS analysis in the Flow Cytometry Shared Resource Facility, Markey Cancer Center as previously described. See Hebbar, N., Wang, C. & Rangnekar, V. M. J Cell Phys 227, 3715-3721 (2012).

[2] = tested on: normal cells (MEFs, HELs, HBEC, PrE, PrS); test: Apoptosis by ICC for active caspase-3, normal cells; format: cell-based, human, mouse
Method: (§3) Normal cells (MEFs, HELs, HBEC, PrE, prostate stromal cells PrS) or lung cancer cells (human A549 and H460, mouse LLC1 and KP7B) and prostate cancer cells (PC-3 MM2, DU145, LNCaP) were treated with the indicated amounts (0.5, 1 and 10 μM) of Arylquin 1 or vehicle (V) for 24 h, and apoptosis was determined by ICC for active caspase-3. Data shown represent mean values from three independent experiments±s.d. Asterisks (**) or (*) indicate statistical significance (P<0.0001) or (P<0.001), respectively, by the Student t test.
as §2

[3] = tested on: cancer cell cultures (PC-3 MM2 cells); test: Ex vivo apoptosis of cancer cell cultures by serum from treated mice; format: in vivo, C57BL/6 mice (serum)
Method: as §1
Animal experiments: C57BL/6 mice were injected via the intraperitoneal route with Arylquin 1 (10 mg/kg body weight) or corn oil vehicle, and whole-blood samples were collected 24 h later. Serum was separated from the blood samples, heated at 56° C. to inactivate complement. Aliquots of the mouse serum samples were added to the growth medium (final 20% mouse serum) of normal and cancer cells in culture and tested for induction of ex vivo apoptosis in cancer cells. All animal procedures were performed with University of Kentucky IACUC approval.

normal HEL cells = test: Apoptosis of normal cells in co-culture experiments; format: cell-based, human; settings: 500 nM
Method: as §2

vimentin-deficient cells = test: Par-4 secretion from vimentin-deficient cells; format: cell-based
PC-3 cells = test: Apoptosis, PC-3 cells; format: cell-based, human; settings: 500 nM
Method: as §2

[4] = tested on: panel of lung tumor cells; test: Par-4 secretion from lung tumor cells; format: cell-based
prostate cancer cells = test: Par-4 secretion from prostate cancer cells; format: cell-based; settings: relative to vehicle control
vimentin = test: Pull-down with biotinylated arylquin to identify target protein; format: binding, mouse (MEFs), human (HEL); settings: lysates of MEFs and HEL cells, biotinylated analog
Method: Pull down experiments: To identify the target protein for compound Arylquin 1, pull-down experiments were performed as described previously. See Bargagna-Mohan, P., et al. J Biol Chem 285, 7657-7669 (2010). MEFs or HEL cells (grown to confluence in 15 cm plates) were lysed in […] lysis buffer (40 mM Hepes, pH 7.8; 140 mM NaCl; 10 mM NaF; 10% Glycerol, 1 mM EDTA; 1% Triton 100), and the lysates were pre-cleared at 4° C. for 1 h with 100 μL streptavidin beads (Novagen, Strep-Tactin Superflow Agarose). Binding reactions were performed by incubating the pre-cleared cell lysates with 50 μL beads±25 μg of biotinylated Arylquin 1 at 4° C. for 2 h. The beads were then washed four times with buffer (40 mM Hepes, pH 7.8; 140 mM NaCl; 10 mM NaF; 10% Glycerol, 1 mM EDTA), and bound protein was eluted with 50 μL of 2.5 mM Biotin/PBS. Eluted proteins were resolved by SDS-PAGE and Coomassie blue staining.

[5] = tested on: diverse cancer cells (lung cancer A549, H460, LLC1, KP7B; prostate cancer PC-3 MM2, DU145, LNCaP); test: Apoptosis by ICC for active caspase-3, cancer cells; format: cell-based, human, mouse
Method: as §3, §2

DU145 cells = test: Apoptosis, DU145 cells; format: cell-based, human; settings: 500 nM
Method: as §2

PC-3MM2 = test: Apoptosis, PC-3MM2 cells; format: cell-based, human; settings: 500 nM
Method: as §2

[6] = tested on: cancer cells co-cultured with Par-4-/- MEFs; test: Apoptosis in co-cultures of Par-4-/- MEFs and cancer cells; format: cell-based; settings: 500 nM
Method: as §1, §2

LNCaP = test: Apoptosis, LNCaP cells; format: cell-based, human; settings: 500 nM
Method: as §2

## CN(C)c1ccc2cc(-c3ccccc3F)c(N)nc2c1 [Arylquin 1, 3-(2-fluorophenyl)-N^7,N^7-dimethylquinoline-2,7-diamine]
[1]; 500 nM, Par-4+/+ MEFs, relative to vehicle
  apoptosis of cancer cells in co-culture: resulted in apoptosis of the cancer cells
[1]; p53-wild type, p53-deficient and oncogenic K-ras lung cancer cells
  paracrine apoptosis of lung cancer cells by Par-4 secreted from normal cells: adequate to induce paracrine apoptosis
[2]; 500 nM
  direct apoptosis: did not directly induce apoptosis
[2]; 0.5, 1 and 10 μM, 24 h
  apoptosis: not in normal cells
[3]; serum incubated with Par-4 antibody
  pro-apoptotic activity in serum after Par-4 antibody: neutralized by the Par-4 antibody
[3]; serum of treated vs vehicle-treated mice, final 20% mouse serum
  ex vivo apoptosis of cancer cell cultures by serum: significantly higher (P<0.001) ex vivo apoptosis
Normal HEL cells
  apoptosis of normal cells in co-culture: not normal HEL cells
vimentin-deficient cells
  Par-4 secretion: did not further induce Par-4 secretion
PC-3 cells
  apoptosis: induced apoptosis
[4]
  Par-4 secretion: failed to induce the secretion of Par-4
Prostate cancer cells
  Par-4 secretion: showed induction of Par-4 secretion
vimentin
  target protein identified by pull-down: Vimentin was the primary target
[5]; 500 nM
  direct apoptosis: did not directly induce apoptosis
[5]; 0.5, 1 and 10 μM, 24 h
  apoptosis: induced the dose-dependent apoptosis in cancer cells
DU145 cells
  apoptosis: not in LNCaP or DU145 cells
PC-3MM2
  apoptosis: induced apoptosis
[6]
  apoptosis of cancer cells in co-culture: did not induce apoptosis
LNCaP
  apoptosis: not in LNCaP or DU145 cells
